How the values were obtained:
[1] = test system: HeLa-APL; test: Inhibition of cells growth by colorimetric assay (SRB); details: Homo sapiens, 48 h; for GI50: read-out: HELA-APL GI50; for CC50: read-out: HELA-APL LC50; for IC (TGI): read-out: HELA-APL TGI
How it was run: (§1)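 Colorimetric SRB read (490 nm) on triplicate wells after 48 h at 37 °C, 5% CO2. Dose range 10 to 10^−8 μg/ml; 5×10^3 cells/well pre-attached 18 h.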

[2] = test system: DU-145; test: as above; details: Homo sapiens, DU-145, 48 h; for GI50: read-out: DU145 GI50; for CC50: read-out: DU145 LC50; for IC (TGI): read-out: DU145 TGI
How it was run: as §1

[3] = test system: SK-MEL-28; test: as above; details: Homo sapiens, SK-MEL-28, 48 h; for GI50: read-out: MEL-28 GI50; for CC50: read-out: MEL-28 LC50; for IC (TGI): read-out: MEL-28 TGI
How it was run: as §1

[4] = test system: IGROV-1; test: as above; details: Homo sapiens, IGROV-1, 48 h; for GI50: read-out: IGROV GI50; for CC50: read-out: IGROV LC50; for IC (TGI): read-out: IGROV TGI
How it was run: as §1

[5] = test system: LNCaP; test: as above; details: Homo sapiens, LNCaP, 48 h; for GI50: read-out: LNCAP GI50; for CC50: read-out: LNCAP LC50; for IC (TGI): read-out: LNCAP TGI
How it was run: as §1

[6] = test system: IGROV-ET; test: as above; details: Homo sapiens, 48 h; for GI50: read-out: IGROV-ET GI50; for CC50: read-out: IGROV-ET LC50; for IC (TGI): read-out: IGROV-ET TGI
How it was run: as §1

[7] = test system: PANC-1; test: as above; details: Homo sapiens, PANC-1, 48 h; for GI50: read-out: PANC-1 GI50; for CC50: read-out: PANC-1 LC50; for IC (TGI): read-out: PANC-1 TGI
How it was run: as §1

[8] = test system: LoVo-Dox; test: as above; details: Homo sapiens, 48 h; for GI50: read-out: LOVO-DOX GI50; for CC50: read-out: LOVO-DOX LC50; for IC (TGI): read-out: LOVO-DOX TGI
How it was run: as §1

[9] = test system: K-562; test: as above; details: Homo sapiens, K562, 48 h; for GI50: read-out: K562 GI50; for CC50: read-out: K562 LC50; for IC (TGI): read-out: K562 TGI
How it was run: as §1

[10] = test system: SK-BR-3; test: as above; details: Homo sapiens, SK-BR-3, 48 h; for GI50: read-out: SK-BR3 GI50; for CC50: read-out: SK-BR3 LC50; for IC (TGI): read-out: SK-BR3 TGI
How it was run: as §1

[11] = test system: HeLa; test: as above; details: Homo sapiens, HeLa, 48 h; for GI50: read-out: HELA GI50; for CC50: read-out: HELA LC50; for IC (TGI): read-out: HELA TGI
How it was run: as §1

[12] = test system: LoVo; test: cells; details: Homo sapiens, LoVo, 48 h; for GI50: read-out: LOVO GI50; for CC50: read-out: LOVO LC50; for IC (TGI): read-out: LOVO TGI
How it was run: as §1

[13] = test system: A-549; test: cells; details: Homo sapiens, A549, 48 h; for GI50: read-out: A549 GI50; for CC50: read-out: A549 LC50; for IC (TGI): read-out: A549 TGI
How it was run: as §1

[14] = test system: HT-29; test: cells; details: Homo sapiens, HT-29, 48 h; for GI50: read-out: HT29 GI50; for CC50: read-out: HT29 LC50; for IC (TGI): read-out: HT29 TGI
How it was run: as §1

C=CCN1[C@@H]2c3c(cc(C)c(OC)c3O)C[C@H]1[C@H](C#N)N1C2[C@@H]2SC[C@]3(NCCc4cc(OC(=O)OC(C)(C)C)c(OC)cc43)C(=O)OC[C@H]1c1c3c(c(C)c(OC(=O)CCCCCCC)c12)OCO3 (some centres unmarked) [compound 48]
GI50 [1]: 1.87 µM
CC50 [1]: 7.87 µM
IC (TGI) [1]: 3.83 µM
GI50 [2]: 2.55 µM
CC50 [2]: 10.2 µM
IC (TGI) [2]: 6.26 µM
GI50 [3]: 3.19 µM
CC50 [3]: 10.2 µM
IC (TGI) [3]: 10.2 µM
GI50 [4]: 3.52 µM
CC50 [4]: 10.2 µM
IC (TGI) [4]: 10.2 µM
GI50 [5]: 1.67 µM
CC50 [5]: 6.31 µM
IC (TGI) [5]: 3.24 µM
GI50 [6]: 3.72 µM
CC50 [6]: 10.2 µM
IC (TGI) [6]: 10.2 µM
GI50 [7]: 4.42 µM
CC50 [7]: 10.2 µM
IC (TGI) [7]: 10.2 µM
GI50 [8]: 10.2 µM
CC50 [8]: 10.2 µM
IC (TGI) [8]: 10.2 µM
GI50 [9]: 0.515 µM
CC50 [9]: 10.2 µM
IC (TGI) [9]: 2.73 µM
GI50 [10]: 0.682 µM
CC50 [10]: 10.2 µM
IC (TGI) [10]: 4 µM
GI50 [11]: 2.17 µM
CC50 [11]: 10.2 µM
IC (TGI) [11]: 5.11 µM
GI50 [12]: 4.01 µM
CC50 [12]: 10.2 µM
IC (TGI) [12]: 10.2 µM
GI50 [13]: 8.1 µM
CC50 [13]: 10.2 µM
IC (TGI) [13]: 10.2 µM
GI50 [14]: 6.71 µM
CC50 [14]: 10.2 µM
IC (TGI) [14]: 10.2 µM

C=CCN1[C@@H]2c3c(cc(C)c(OC)c3O)C[C@H]1[C@H](C#N)N1C2[C@@H]2SC[C@]3(NCCc4cc(O)c(OC)cc43)C(=O)OC[C@H]1c1c3c(c(C)c(OC(=O)/C=C/c4ccccc4)c12)OCO3 (some centres unmarked) [compound 49]
GI50 [1]: 0.182 µM
CC50 [1]: 0.701 µM
IC (TGI) [1]: 0.357 µM
GI50 [2]: 0.107 µM
CC50 [2]: 11.3 µM
IC (TGI) [2]: 1.25 µM
GI50 [3]: 0.181 µM
CC50 [3]: 0.701 µM
IC (TGI) [3]: 0.356 µM
GI50 [4]: 0.165 µM
CC50 [4]: 1.13 µM
IC (TGI) [4]: 0.432 µM
GI50 [5]: 0.0405 µM
CC50 [5]: 0.442 µM
IC (TGI) [5]: 0.175 µM
GI50 [6]: 0.28 µM
CC50 [6]: 11.3 µM
IC (TGI) [6]: 0.616 µM
GI50 [7]: 0.179 µM
CC50 [7]: 3.92 µM
IC (TGI) [7]: 0.564 µM
GI50 [8]: 0.672 µM
CC50 [8]: 11.3 µM
IC (TGI) [8]: 11.3 µM
GI50 [9]: 0.0377 µM
CC50 [9]: 5.1 µM
IC (TGI) [9]: 0.311 µM
GI50 [10]: 0.0496 µM
CC50 [10]: 11.3 µM
IC (TGI) [10]: 1.86 µM
GI50 [11]: 0.189 µM
CC50 [11]: 0.929 µM
IC (TGI) [11]: 0.418 µM
GI50 [12]: 0.25 µM
CC50 [12]: 0.89 µM
IC (TGI) [12]: 0.471 µM
GI50 [13]: 0.184 µM
CC50 [13]: 1.01 µM
IC (TGI) [13]: 0.431 µM
GI50 [14]: 0.194 µM
CC50 [14]: 11.3 µM
IC (TGI) [14]: 0.588 µM

C=CCN1[C@@H]2c3c(cc(C)c(OC)c3O)C[C@H]1[C@H](C#N)N1C2[C@@H]2SC[C@]3(NCCc4cc(O)c(OC)cc43)C(=O)OC[C@H]1c1c3c(c(C)c(OC(=O)CCCCCCC)c12)OCO3 (some centres unmarked) [compound 50]
GI50 [1]: 3.11 µM
CC50 [1]: 11.3 µM
GI50 [2]: 1.8 µM
CC50 [2]: 1130 µM
IC (TGI) [2]: 918 µM
GI50 [3]: 2.53 µM
CC50 [3]: 11.3 µM
IC (TGI) [3]: 8.36 µM
GI50 [4]: 2.42 µM
CC50 [4]: 1130 µM
IC (TGI) [4]: 11.3 µM
GI50 [5]: 0.948 µM
CC50 [5]: 11.3 µM
IC (TGI) [5]: 3.68 µM
GI50 [6]: 3.29 µM
CC50 [6]: 11.3 µM
IC (TGI) [6]: 11.3 µM
GI50 [7]: 2.45 µM
CC50 [7]: 11.3 µM
IC (TGI) [7]: 11.3 µM
GI50 [8]: 10.1 µM
CC50 [8]: 11.3 µM
IC (TGI) [8]: 11.3 µM
GI50 [9]: 0.891 µM
CC50 [9]: 11.3 µM
IC (TGI) [9]: 11.3 µM
GI50 [10]: 13.1 µM
CC50 [10]: 11.3 µM
IC (TGI) [10]: 11.3 µM
GI50 [11]: 3.75 µM
CC50 [11]: 11.3 µM
IC (TGI) [11]: 11.3 µM
GI50 [12]: 4.94 µM
CC50 [12]: 11.3 µM
IC (TGI) [12]: 11.3 µM
GI50 [13]: 3.76 µM
CC50 [13]: 11.3 µM
IC (TGI) [13]: 11.3 µM
GI50 [14]: 8.9 µM
CC50 [14]: 11.3 µM
IC (TGI) [14]: 11.3 µM
